Results on eleven molecules are retold here after PubChem BioAssay AID1259407 (Chemical Carcinogenesis Research Information System (CCRIS), 2018).

SMILES strings stand for the structures. The source made the active and inactive calls. How the calls were made is not given here.

This data set has as its system CCRIS mutagenicity, Ames/micronucleus/aberration tests. Nature of the data set: CCRIS mutagenicity studies.
Where [1] appears, read: Test System: AMES SALMONELLA TYPHIMURIUM, Strain/Indicator: TA97, Metabolic Activation: NONE, Method: PREINCUBATION
[2] abbreviates: Test System: AMES SALMONELLA TYPHIMURIUM, Strain/Indicator: TA102, Metabolic Activation: NONE, Method: PREINCUBATION
[3] abbreviates: Test System: AMES SALMONELLA TYPHIMURIUM, Strain/Indicator: TA98, Metabolic Activation: NONE, Method: PREINCUBATION
The mark [4] stands for this setting: Test System: AMES SALMONELLA TYPHIMURIUM, Strain/Indicator: TA100, Metabolic Activation: NONE, Method: PREINCUBATION
Setting [5] is: Test System: AMES SALMONELLA TYPHIMURIUM, Strain/Indicator: TA98, Metabolic Activation: RAT, LIVER, S-9, AROCLOR 1254, Method: STANDARD PLATE.
Where [6] appears, read: Test System: AMES SALMONELLA TYPHIMURIUM, Strain/Indicator: TA100, Metabolic Activation: NONE, Method: STANDARD PLATE.
The mark [7] stands for this setting: Test System: AMES SALMONELLA TYPHIMURIUM, Strain/Indicator: TA100, Metabolic Activation: RAT, LIVER, S-9, AROCLOR 1254, Method: STANDARD PLATE.
Where [8] appears, read: Test System: AMES SALMONELLA TYPHIMURIUM, Strain/Indicator: TA1537, Metabolic Activation: RAT, LIVER, S-9, AROCLOR 1254, Method: STANDARD PLATE.
The mark [9] stands for this setting: Test System: AMES SALMONELLA TYPHIMURIUM, Strain/Indicator: TA98, Metabolic Activation: NONE, Method: STANDARD PLATE.

Turning to `C=CC(C)(O)CCC=C(C)C` (centres undefined), the mutagenic call is, setting by setting: under setting [1], “inactive; negative”; (Test System: AMES SALMONELLA TYPHIMURIUM, Strain/Indicator: TA97, Metabolic Activation: RAT, LIVER, S-9, AROCLOR 1254, Method: PREINCUBATION) “inactive; negative”; under setting [2], “inactive; negative”; (Test System: AMES SALMONELLA TYPHIMURIUM, Strain/Indicator: TA102, Metabolic Activation: RAT, LIVER, S-9, AROCLOR 1254, Method: PREINCUBATION) “inactive; negative”; (Test System: E. coli, Strain/Indicator: WP2 IC185 trpE65, Metabolic Activation: None, Method: Plate incorporation (Test material solvent: ethanol)) “inactive; negative”; (Test System: E. coli, Strain/Indicator: WP2 IC202 trpE65 oxyR/pKM101, Metabolic Activation: None, Method: Plate incorporation (Test material solvent: ethanol)) “inactive; negative”.

In the case of `CC(=C/C=C/C(C)=C/C=C/C=C(C)/C=C/C=C(C)/C=C/C(=O)O)/C=C/C(=O)O`, the mutagenic call runs as follows: under setting [1], “inactive; negative”; (Test System: AMES SALMONELLA TYPHIMURIUM, Strain/Indicator: TA97, Metabolic Activation: S-9, Method: PREINCUBATION) “inactive; negative”; under setting [2], “inactive; negative”; (Test System: AMES SALMONELLA TYPHIMURIUM, Strain/Indicator: TA102, Metabolic Activation: S-9, Method: PREINCUBATION) “inactive; negative”.

With `COc1c(O)cc2c3c(cc4ccccc4c13)NC2=O`, for the setting “Test System: AMES SALMONELLA TYPHIMURIUM, Strain/Indicator: TM677/8-AZAGUANINE, Metabolic Activation: NONE, Method: SUSPENSION/PLATE”, the mutagenic call was “inactive; negative”.

Consider `Fc1cc(F)c2cccnc2c1`, for which the mutagenic call (Test System: AMES SALMONELLA TYPHIMURIUM, Strain/Indicator: TA100, Metabolic Activation: RAT LIVER S-9, PHENOBARBITAL AND 5,6-BENZOFLAVONE, Method: PREINCUBATION) was “active; positive”.

Regarding `Nc1ccc(Oc2ccc([N+](=O)[O-])cc2)cc1`, the mutagenic call by setting is: (Test System: AMES SALMONELLA TYPHIMURIUM, Strain/Indicator: TA98(NR), Metabolic Activation: NONE, Method: PREINCUBATION) “inactive; negative”; (Test System: AMES SALMONELLA TYPHIMURIUM, Strain/Indicator: TA98(NR), Metabolic Activation: RAT, LIVER, S-9, AROCLOR 1254, Method: PREINCUBATION) “active; positive”; under setting [3], “active; positive”; (Test System: AMES SALMONELLA TYPHIMURIUM, Strain/Indicator: TA98, Metabolic Activation: RAT, LIVER, S-9, AROCLOR 1254, Method: PREINCUBATION) “active; positive”; (Test System: AMES SALMONELLA TYPHIMURIUM, Strain/Indicator: TA100(NR), Metabolic Activation: NONE, Method: PREINCUBATION) “active; positive”; (Test System: AMES SALMONELLA TYPHIMURIUM, Strain/Indicator: TA100(NR), Metabolic Activation: RAT, LIVER, S-9, AROCLOR 1254, Method: PREINCUBATION) “active; positive”. For the same molecule, the mutagenic call is “active; positive” under setting [4] and “active; positive” (Test System: AMES SALMONELLA TYPHIMURIUM, Strain/Indicator: TA100, Metabolic Activation: RAT, LIVER, S-9, AROCLOR 1254, Method: PREINCUBATION).

Regarding `CC1=C[C@@H]2c3cccc4[nH]cc(c34)C[C@H]2N(C)C1`, the mutagenic call under setting [5] is “active; positive”, the mutagenic call under setting [6] was “inactive; negative”, the mutagenic call under setting [7] is “active; positive” and the mutagenic call under setting [8] was “inactive; negative”.

For the molecule `c1ccc2c(c1)-c1cccc3cc4ccccc4c-2c13`, the mutagenic call under setting [9] is “inactive; negative”, the mutagenic call under setting [5] was “inactive; negative” and the mutagenic call under setting [7] was “active; positive”.

In the case of `O[C@H]1[C@H]2O[C@H]2c2c(ccc3ccc4ccccc4c23)[C@@H]1O`, the mutagenic call reads like this: (Test System: E. COLI, Strain/Indicator: CL101P, Metabolic Activation: NONE, Method: PREINCUBATION) “active; positive”; (Test System: E. COLI, Strain/Indicator: CL102P, Metabolic Activation: NONE, Method: PREINCUBATION) “active; positive”; (Test System: E. COLI, Strain/Indicator: CL103P, Metabolic Activation: NONE, Method: PREINCUBATION) “active; positive”; (Test System: E. COLI, Strain/Indicator: CL104P, Metabolic Activation: NONE, Method: PREINCUBATION) “active; positive”; (Test System: E. COLI, Strain/Indicator: CL105P, Metabolic Activation: NONE, Method: PREINCUBATION) “active; positive”; (Test System: E. COLI, Strain/Indicator: CL106P, Metabolic Activation: NONE, Method: PREINCUBATION) “active; positive”.

In the case of `Cc1cc2nc3c(=O)[nH]c(=O)nc-3n(C)c2cc1C`, the mutagenic call was “inactive; negative” (Test System: AMES SALMONELLA TYPHIMURIUM, Strain/Indicator: TA97A, Metabolic Activation: NONE, Method: PREINCUBATION); “active; positive” (Test System: AMES SALMONELLA TYPHIMURIUM, Strain/Indicator: TA97A, Metabolic Activation: RAT, CECAL CELL-FREE EXTRACT, Method: PREINCUBATION); “active; positive” (Test System: AMES SALMONELLA TYPHIMURIUM, Strain/Indicator: TA97A, Metabolic Activation: RAT, LIVER, S9, AROCLOR 1254, Method: PREINCUBATION); “inactive; negative” under setting [3]; “inactive; negative” (Test System: AMES SALMONELLA TYPHIMURIUM, Strain/Indicator: TA98, Metabolic Activation: RAT, CECAL CELL-FREE EXTRACT, Method: PREINCUBATION); “active; positive” (Test System: AMES SALMONELLA TYPHIMURIUM, Strain/Indicator: TA98, Metabolic Activation: RAT, LIVER, S9, AROCLOR 1254, Method: PREINCUBATION). The mutagenic call by setting is: under setting [4], “inactive; negative”; (Test System: AMES SALMONELLA TYPHIMURIUM, Strain/Indicator: TA100, Metabolic Activation: RAT, CECAL CELL-FREE EXTRACT, Method: PREINCUBATION) “inactive; negative”; (Test System: AMES SALMONELLA TYPHIMURIUM, Strain/Indicator: TA100, Metabolic Activation: RAT, LIVER, S9, AROCLOR 1254, Method: PREINCUBATION) “inactive; negative”.

Take `CN(CC(=O)NN)c1ccc2ccccc2c1`: the mutagenic call is “inactive; negative” under setting [9]; “inactive; negative” under setting [5]; “inactive; negative” under setting [6]; “inactive; negative” under setting [7]; “inactive; negative” (Test System: AMES SALMONELLA TYPHIMURIUM, Strain/Indicator: TA1537, Metabolic Activation: NONE, Method: STANDARD PLATE); “inactive; negative” under setting [8].

Take `Nc1c2ccccc2nc2ccc(Br)cc12`: the mutagenic call (Test System: AMES SALMONELLA TYPHIMURIUM, Strain/Indicator: TA1537, Metabolic Activation: NONE, Method: PREINCUBATION) was “active; positive”.
